These results are taken from patent US9067894B1, “Compound, composition, and method of activating GIRK potassium channel and use of same for treating conditions of interest” (Vanderbilt University, priority 2013, dated 2015).

Molecules are shown by their SMILES.

One test has as its target T1, Adrenergic α2A (Homo sapiens, UniProt P08913).
T1 construct: Ricerca (contract assay)
Description: Radioligand displacement (Ricerca). The test is classed as binding.

The target of the next test is T2, Neuropeptide Y (Y2) (Homo sapiens, UniProt P49146).
T2 construct: Ricerca (contract laboratory that ran the panel)
Description: Radioligand displacement (Ricerca). The test is classed as binding.

Another test addresses T3, Transporter, NET (Homo sapiens, UniProt P23975).
T3 construct: Ricerca (contract panel)
Briefly: Radioligand displacement (Ricerca). The class given is binding.

The target of the next test is T4, GIRK1/2 (Homo sapiens, UniProt P48051+P48549).
T4 sequence (P48549 1-501): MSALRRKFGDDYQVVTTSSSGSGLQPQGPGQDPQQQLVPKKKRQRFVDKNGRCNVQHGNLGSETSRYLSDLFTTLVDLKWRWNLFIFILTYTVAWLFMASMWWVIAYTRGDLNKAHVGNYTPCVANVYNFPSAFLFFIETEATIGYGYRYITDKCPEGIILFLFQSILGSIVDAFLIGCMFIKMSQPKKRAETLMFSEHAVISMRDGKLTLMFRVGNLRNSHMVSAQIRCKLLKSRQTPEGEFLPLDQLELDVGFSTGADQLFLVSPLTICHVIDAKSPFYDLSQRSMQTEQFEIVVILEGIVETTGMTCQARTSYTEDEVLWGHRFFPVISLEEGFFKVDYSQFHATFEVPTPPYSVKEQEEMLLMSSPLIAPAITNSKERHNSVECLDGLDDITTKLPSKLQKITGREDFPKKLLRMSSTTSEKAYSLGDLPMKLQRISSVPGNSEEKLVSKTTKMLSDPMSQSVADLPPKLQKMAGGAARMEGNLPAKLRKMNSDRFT
T4 sequence (P48051 1-423): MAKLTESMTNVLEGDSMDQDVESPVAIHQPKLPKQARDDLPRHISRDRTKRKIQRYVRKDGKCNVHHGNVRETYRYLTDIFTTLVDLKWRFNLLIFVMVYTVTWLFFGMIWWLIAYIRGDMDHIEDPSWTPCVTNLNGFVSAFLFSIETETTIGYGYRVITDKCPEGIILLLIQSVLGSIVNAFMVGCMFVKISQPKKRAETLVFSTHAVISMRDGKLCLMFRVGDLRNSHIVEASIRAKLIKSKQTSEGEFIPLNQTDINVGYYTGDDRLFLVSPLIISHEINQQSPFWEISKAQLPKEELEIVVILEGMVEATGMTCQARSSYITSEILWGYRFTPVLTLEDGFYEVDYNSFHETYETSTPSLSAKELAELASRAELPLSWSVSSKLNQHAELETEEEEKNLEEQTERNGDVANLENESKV
Description: Whole-cell voltage-clamp, GIRK1/2-expressing HEK-293 cells. The class given is cell-based. The arrangement: host or cells: HEK-293. From the text: Cell Line Construction and Cell Culture. HEK-293 cells co-expressing human GIRK1/2 and rat mGlu8 were generated as previously described (Niswender et al., 2008). A HEK-293 cell line (ATCC, Manassas, Va.) expressing human GIRK1 and human GIRK2 was constructed by transfecting HEK-293 cells with GIRK1 and GIRK2 (Origene, Rockville, Md.) cloned into the pBudCE4.1 vector (Life Technologies, Carlsbad, Calif.) using FuGene 6 (Promega, Madison, Wis.) transfection reagent. Unless otherwise noted, other ion channel-expressing cells were prepared by transfecting HEK-293 cells with individual or combinations of subunits: GIRK1, pCMV6-A-BSD; GIRK2, pCMV6-A-puro; GIRK3, pCMV6-A-hygro; GIRK4, pCMV6-A-AC; Kv7.4, pIRESneo3. The Kir2.1 and hERG-expressing cell lines were made by transfecting T-REx-293 cells (Life Technologies, Carlsbad, Calif.) with Kir2.1 and Kv11.1, respectively, cloned into pcDNA5TO. Monoclonal cell lines were produced by limiting-dilution cloning of antibiotic-resistant cells and functional selection using the thallium flux assay described below. Unless otherwise noted, cells were maintained in Minimal Essential Medium, Alpha Medium (Mediatech, Manassas, Va.) supplemented with 10% fetal bovine serum (Sigma-Aldrich, Saint Louis, Mo.) and GlutaGro (Mediatech, Manassas, Va.), referred to henceforth as cell culture medium. […]
A single-cell suspension of HEK-293 cells stably transfected with the appropriate ion channels were plated into TC-treated 35 mm polystyrene dishes at ˜15% confluence and incubated overnight in a 5% CO2 cell culture incubator at 37° C. […] Whole cell currents were recorded in 20K extracellular solution at −70 mV using a Pico 1 amplifier (Tecella, Foothill Ranch, Calif.) controlled by WINWCP 4.X (University of Strathclyde, Glasgow, Scotland, UK). […] One day after transfection, cells were plate into 35 mm polystyrene dishes, incubated and recorded as described above. […]
Voltage-clamp data were analyzed by converting current amplitudes to current density by dividing by each cell's membrane capacitance estimated from capacitance compensation. […]

T2 sequence (P49146 whole entry): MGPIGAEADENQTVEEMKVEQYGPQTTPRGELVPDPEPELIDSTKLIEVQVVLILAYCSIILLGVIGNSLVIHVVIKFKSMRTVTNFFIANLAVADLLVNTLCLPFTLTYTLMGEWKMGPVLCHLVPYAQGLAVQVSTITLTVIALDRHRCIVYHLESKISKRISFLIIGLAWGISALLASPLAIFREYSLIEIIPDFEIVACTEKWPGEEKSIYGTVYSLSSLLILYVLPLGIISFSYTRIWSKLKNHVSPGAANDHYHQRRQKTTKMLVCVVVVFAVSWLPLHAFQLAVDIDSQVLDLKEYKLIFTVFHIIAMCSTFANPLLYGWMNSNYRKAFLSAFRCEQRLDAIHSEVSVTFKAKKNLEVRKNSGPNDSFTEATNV
T1 sequence (P08913 whole entry): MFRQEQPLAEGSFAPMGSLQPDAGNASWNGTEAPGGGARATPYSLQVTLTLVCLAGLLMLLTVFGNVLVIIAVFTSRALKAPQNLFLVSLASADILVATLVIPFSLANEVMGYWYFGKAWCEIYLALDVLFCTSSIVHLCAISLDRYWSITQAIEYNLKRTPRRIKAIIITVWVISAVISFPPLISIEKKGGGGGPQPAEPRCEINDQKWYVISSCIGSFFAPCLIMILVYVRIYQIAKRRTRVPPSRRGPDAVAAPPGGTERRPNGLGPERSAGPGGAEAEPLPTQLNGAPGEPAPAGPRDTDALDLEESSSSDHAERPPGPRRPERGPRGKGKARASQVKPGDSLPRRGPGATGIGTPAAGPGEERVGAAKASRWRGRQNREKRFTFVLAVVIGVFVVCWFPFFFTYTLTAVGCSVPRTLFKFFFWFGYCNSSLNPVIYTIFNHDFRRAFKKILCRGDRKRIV
T3 sequence (P23975 whole entry): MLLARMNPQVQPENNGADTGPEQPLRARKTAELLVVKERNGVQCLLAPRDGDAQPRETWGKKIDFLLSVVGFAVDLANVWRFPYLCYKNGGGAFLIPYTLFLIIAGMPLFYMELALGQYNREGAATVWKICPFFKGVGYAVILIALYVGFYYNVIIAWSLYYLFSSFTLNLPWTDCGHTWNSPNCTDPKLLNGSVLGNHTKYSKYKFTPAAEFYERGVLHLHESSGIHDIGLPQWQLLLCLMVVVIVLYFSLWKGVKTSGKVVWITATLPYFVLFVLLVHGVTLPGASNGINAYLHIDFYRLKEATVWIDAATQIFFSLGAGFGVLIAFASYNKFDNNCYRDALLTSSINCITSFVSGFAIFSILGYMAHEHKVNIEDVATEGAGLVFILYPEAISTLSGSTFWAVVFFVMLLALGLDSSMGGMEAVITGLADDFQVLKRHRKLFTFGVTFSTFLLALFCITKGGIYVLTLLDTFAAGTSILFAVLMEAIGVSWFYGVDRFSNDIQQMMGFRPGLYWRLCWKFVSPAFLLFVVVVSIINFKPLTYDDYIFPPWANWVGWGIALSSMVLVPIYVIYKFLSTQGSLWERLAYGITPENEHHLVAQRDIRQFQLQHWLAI

With `Cc1cc(NC(=O)Nc2ccc(F)c(F)c2)n(-c2ccccc2)n1` [VU0456810, 1-(3,4-difluorophenyl)-3-(3-methyl-1-phenyl-1H-pyrazol-5-yl)urea], the inhibition at 10 µM on Adrenergic α2A is 4%; at Neuropeptide Y (Y2), -5%; on Transporter, NET it was 15%. Further, at GIRK1/2 (10 μM, local superfusion), the “time to 90% of maximal current amplitude after application” value is “approximately 2 seconds”. Further, the washout time entry at GIRK1/2 (after application was terminated) is reported as “nearly a minute”. Besides, on GIRK1/2 (cell line GIRK1-2, average ± SEM), the EC50 was determined as 584 ± 175 nM.
